Reference: patent US9295682B2, “Adjuvant immunotherapy for the preventive, curative or palliative treatment of chronic systemic diseases such as cancer, of clinical manifestations associated with diseases like cachexia and correction of adverse effects of drugs such as immunosuppression, neutropenia and lymphopenia, comprising …” (priority 2009, dated 2016)
“And” between values parts separate entries of the source, which are not always exact repeats. Equal entries are not always repeated.

How the values were obtained:
hTLR8 = molecular target: T1, hTLR8 (Homo sapiens, UniProt Q9NR97); assay: Toll-like receptor binding/stimulation, HEK293 cells expressing hTLR8; type: cell-based; conditions: CL075 1 μg/mL
T1 construct: expressed in transfected cells; host or cells: HEK293 (293/hTLR8)
T1 sequence (Q9NR97 27-1041): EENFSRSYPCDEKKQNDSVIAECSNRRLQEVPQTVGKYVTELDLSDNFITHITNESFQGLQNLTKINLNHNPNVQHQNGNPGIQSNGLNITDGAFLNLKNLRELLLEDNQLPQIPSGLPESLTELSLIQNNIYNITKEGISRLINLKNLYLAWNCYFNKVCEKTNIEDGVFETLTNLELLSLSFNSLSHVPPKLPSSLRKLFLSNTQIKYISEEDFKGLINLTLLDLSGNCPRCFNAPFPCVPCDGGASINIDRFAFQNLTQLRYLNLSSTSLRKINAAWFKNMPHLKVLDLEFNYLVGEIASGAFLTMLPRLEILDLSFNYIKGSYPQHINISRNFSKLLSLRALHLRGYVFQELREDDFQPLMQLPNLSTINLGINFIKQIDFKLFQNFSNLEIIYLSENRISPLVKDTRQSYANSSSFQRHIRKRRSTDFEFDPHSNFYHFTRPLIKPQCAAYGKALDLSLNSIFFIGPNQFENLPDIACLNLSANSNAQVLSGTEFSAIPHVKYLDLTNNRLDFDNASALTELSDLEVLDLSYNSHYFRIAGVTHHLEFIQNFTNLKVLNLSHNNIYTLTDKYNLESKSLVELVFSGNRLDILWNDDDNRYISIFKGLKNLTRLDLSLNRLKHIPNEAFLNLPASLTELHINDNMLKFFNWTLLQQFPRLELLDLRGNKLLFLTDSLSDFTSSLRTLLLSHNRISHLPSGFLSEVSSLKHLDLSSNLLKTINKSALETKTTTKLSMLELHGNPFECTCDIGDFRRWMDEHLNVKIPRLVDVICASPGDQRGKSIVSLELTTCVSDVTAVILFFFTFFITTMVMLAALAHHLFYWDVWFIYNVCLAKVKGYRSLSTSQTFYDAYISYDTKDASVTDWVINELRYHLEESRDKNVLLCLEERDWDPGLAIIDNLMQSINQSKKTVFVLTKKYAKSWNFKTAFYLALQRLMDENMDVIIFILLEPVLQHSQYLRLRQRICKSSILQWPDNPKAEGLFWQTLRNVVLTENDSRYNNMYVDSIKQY
Procedure: (§1) Samples in three concentrations (0.5 μg/mL, 5 μg/mL, and 50 μg/mL) of the biological response modifier (proteic aggregate of ammonium and magnesium phospholinoleate-palmitoleate anhydride) were dissolved in dimethylsulfoxide (DMSO at 1%) at the concentration of 1% and incubated with 293 TLR cells (HEK293 cells) in microplates, in duplicate, for 20 hours.
(§2) Standard compounds, that is, ligands known for TLR 3 to TLR9 in predetermined concentrations were also incubated in microplates with 293 TLR cells (HEK293 cells) for 20 hours.
(§3) Subsequently, absorbance readings were taken of the microplates […] at 650 nm using a Beckman Coulter AD 340C Absorbance Detector device with three concentrations of the biological response modifier (proteic aggregate of ammonium and magnesium phospholinoleate-palmitoleate anhydride) incubated with the HEK293 cells and readings were also taken of the microplates incubated with the same cells and the control substances, for comparative assessment of the percentage of binding of the aforementioned compounds to toll-like receptors expressed in HEK293 cells.

hTLR7 = molecular target: T2, hTLR7 (Homo sapiens, UniProt Q9NYK1); assay: Toll-like receptor binding/stimulation, HEK293 cells expressing hTLR7; type: cell-based; conditions: CL097 1 μg/mL
T2 construct: expressed in transfected cells; host or cells: HEK293 (293/hTLR7)
T2 sequence (Q9NYK1 27-1049): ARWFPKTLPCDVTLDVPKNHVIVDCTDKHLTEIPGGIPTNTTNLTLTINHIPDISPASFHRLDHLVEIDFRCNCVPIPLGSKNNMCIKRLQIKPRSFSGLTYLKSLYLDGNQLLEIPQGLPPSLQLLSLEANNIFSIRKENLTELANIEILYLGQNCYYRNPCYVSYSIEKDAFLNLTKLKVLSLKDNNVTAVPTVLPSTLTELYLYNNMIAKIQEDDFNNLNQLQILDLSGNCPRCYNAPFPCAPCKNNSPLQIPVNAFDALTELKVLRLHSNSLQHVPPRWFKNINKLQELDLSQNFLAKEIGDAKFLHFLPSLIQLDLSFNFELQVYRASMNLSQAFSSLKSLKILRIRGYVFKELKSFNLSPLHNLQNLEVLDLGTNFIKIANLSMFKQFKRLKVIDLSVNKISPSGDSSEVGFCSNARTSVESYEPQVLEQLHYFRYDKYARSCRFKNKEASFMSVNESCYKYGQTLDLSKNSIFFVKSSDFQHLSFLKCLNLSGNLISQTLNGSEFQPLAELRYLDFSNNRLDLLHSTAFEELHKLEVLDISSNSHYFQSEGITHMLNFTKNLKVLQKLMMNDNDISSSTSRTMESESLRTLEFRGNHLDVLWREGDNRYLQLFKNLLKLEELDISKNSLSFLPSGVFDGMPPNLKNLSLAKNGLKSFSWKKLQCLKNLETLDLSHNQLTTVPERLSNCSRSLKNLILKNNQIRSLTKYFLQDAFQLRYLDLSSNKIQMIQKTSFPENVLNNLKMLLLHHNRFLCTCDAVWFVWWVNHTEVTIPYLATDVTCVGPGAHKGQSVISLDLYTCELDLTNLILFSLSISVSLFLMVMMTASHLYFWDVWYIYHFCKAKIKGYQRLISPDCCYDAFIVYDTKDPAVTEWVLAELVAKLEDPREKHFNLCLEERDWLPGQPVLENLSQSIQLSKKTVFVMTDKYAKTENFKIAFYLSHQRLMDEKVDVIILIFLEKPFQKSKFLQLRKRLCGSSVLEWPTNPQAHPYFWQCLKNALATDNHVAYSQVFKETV
Procedure: as §1, §2, §3

hTLR9 = molecular target: T3, hTLR9 (Homo sapiens, UniProt Q9NR96); assay: Toll-like receptor binding/stimulation, HEK293 cells expressing hTLR9; type: cell-based; conditions: CpG ODN 2006 1 μg/mL
T3 construct: expressed in transfected cells; host or cells: HEK293 (293/hTLR9)
T3 sequence (Q9NR96 26-1032): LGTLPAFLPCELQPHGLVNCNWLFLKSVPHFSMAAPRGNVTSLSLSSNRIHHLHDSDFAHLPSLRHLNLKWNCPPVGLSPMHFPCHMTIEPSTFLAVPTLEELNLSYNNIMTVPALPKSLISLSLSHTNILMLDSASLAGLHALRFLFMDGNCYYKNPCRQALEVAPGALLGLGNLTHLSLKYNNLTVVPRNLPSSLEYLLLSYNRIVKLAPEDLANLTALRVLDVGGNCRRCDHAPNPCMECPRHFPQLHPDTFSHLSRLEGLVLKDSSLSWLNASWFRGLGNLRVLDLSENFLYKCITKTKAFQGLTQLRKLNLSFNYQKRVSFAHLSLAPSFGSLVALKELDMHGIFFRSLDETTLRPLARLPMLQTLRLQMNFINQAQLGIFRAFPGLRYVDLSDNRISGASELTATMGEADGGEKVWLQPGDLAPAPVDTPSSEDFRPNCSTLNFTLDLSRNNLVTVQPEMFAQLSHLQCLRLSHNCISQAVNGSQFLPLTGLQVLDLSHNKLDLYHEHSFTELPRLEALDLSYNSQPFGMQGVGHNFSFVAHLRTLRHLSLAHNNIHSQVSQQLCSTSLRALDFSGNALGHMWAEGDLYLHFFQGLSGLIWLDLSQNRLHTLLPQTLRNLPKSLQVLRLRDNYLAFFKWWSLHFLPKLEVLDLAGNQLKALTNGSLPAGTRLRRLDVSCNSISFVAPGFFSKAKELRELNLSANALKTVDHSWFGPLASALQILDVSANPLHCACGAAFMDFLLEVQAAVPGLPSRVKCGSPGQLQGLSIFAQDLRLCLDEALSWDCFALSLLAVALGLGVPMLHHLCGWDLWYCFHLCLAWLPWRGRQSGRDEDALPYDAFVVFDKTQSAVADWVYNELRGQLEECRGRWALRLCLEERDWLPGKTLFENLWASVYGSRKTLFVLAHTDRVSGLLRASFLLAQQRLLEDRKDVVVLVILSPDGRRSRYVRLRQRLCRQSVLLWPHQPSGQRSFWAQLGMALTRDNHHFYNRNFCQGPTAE
Procedure: as §1, §2, §3

hTLR3 = molecular target: T4, hTLR3 (Homo sapiens, UniProt O15455); assay: Toll-like receptor binding/stimulation, HEK293 cells expressing hTLR3; type: cell-based; conditions: Poly (I: C) 1 μg/mL
T4 construct: expressed in transfected cells; host or cells: HEK293 (293/hTLR3)
T4 sequence (O15455 24-904): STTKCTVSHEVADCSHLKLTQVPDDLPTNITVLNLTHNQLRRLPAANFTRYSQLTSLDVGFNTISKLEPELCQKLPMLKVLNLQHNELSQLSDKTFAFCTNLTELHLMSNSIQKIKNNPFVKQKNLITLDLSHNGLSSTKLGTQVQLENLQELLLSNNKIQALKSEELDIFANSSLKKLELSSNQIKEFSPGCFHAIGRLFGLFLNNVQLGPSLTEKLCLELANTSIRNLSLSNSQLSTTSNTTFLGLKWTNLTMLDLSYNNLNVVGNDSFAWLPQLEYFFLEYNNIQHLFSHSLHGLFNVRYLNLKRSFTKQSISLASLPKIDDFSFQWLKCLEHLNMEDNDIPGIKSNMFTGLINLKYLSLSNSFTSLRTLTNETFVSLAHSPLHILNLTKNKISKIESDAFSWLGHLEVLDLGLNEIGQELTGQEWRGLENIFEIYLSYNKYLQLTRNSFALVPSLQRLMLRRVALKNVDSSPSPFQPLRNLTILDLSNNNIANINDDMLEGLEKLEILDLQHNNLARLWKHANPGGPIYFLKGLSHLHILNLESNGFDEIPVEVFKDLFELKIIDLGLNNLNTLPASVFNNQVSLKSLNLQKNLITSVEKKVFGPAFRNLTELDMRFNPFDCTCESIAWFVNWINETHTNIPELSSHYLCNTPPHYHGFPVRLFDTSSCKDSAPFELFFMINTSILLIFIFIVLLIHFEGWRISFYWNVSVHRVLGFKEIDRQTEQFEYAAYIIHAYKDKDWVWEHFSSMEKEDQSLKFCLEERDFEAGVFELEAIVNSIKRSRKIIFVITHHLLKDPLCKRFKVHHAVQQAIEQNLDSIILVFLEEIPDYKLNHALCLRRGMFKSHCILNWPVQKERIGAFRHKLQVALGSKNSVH
Procedure: as §1, §2, §3

NF-κB Control cells = assay: Toll-like receptor screening, NF-κB control cells; type: cell-based; conditions: TNFα 100 ng/ml
Procedure: as §1, §2, §3

metastatic melanoma = conditions: high doses of interferon-alpha alone; cited from earlier work
hTLR5 = hTLR5 (Homo sapiens, UniProt O60602); assay: Toll-like receptor binding/stimulation, HEK293 cells expressing hTLR5; type: cell-based; conditions: S. typhimurium flagellin 100 ng/ml
Sequence of hTLR5 (O60602 21-858): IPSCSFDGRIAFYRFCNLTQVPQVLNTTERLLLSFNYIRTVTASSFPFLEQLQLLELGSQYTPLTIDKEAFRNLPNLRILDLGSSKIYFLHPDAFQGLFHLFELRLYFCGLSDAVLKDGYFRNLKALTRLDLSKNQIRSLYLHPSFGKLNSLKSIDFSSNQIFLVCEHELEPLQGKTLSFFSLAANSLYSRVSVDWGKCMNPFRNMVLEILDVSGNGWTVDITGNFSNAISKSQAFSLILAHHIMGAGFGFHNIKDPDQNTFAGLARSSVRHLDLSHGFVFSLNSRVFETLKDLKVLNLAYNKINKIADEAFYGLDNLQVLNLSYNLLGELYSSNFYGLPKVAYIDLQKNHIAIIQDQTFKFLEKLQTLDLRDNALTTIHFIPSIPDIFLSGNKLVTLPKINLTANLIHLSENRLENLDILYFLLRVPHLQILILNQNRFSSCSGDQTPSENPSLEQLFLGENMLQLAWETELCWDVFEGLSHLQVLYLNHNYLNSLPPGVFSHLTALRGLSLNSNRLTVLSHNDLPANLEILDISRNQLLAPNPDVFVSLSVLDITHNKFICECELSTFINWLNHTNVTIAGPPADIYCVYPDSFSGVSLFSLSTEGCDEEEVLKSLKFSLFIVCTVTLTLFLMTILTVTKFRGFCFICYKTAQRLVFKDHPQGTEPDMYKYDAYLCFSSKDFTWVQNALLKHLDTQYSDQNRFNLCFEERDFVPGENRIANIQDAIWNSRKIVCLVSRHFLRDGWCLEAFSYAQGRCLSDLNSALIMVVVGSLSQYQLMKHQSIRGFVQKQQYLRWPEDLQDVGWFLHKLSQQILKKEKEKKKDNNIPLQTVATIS
Procedure: Subsequently, absorbance readings were taken of the microplates by fluorescence at 650 nm using a Beckman Coulter AD 340C Absorbance Detector device with three concentrations of the biological response modifier (proteic aggregate of ammonium and magnesium phospholinoleate-palmitoleate anhydride) incubated with the HEK293 cells and readings were also taken of the microplates incubated with the same cells and the control substances, for comparative assessment of the percentage of binding of the aforementioned compounds to toll-like receptors expressed in HEK293 cells.

CCCc1nc2c(N)nc3ccccc3c2s1 [CL075]
OD (650 nm), 293/hTLR8 cells, Controls+ (hTLR8; 20 h, screening 1 and 2): 3.313 OD (650 nm) and 3.338 OD (650 nm)
% ligands (% bindings), 293/hTLR8, Controls (hTLR8; reference): 100%

CCOCc1nc2c([nH]1)c(N)nc1ccccc12 [CL097]
OD (650 nm), 293/hTLR7 cells, Controls+ (hTLR7; 20 h, screening 1 and 2): 3.222 OD (650 nm) and 3.359 OD (650 nm)
% ligands (% bindings), 293/hTLR7, Controls (hTLR7; reference): 100%

CpG ODN 2006
OD (650 nm), 293/hTLR9 cells, Controls+ (hTLR9; 20 h, screening 1 and 2): 2.582 OD (650 nm) and 2.519 OD (650 nm)
% ligands (% bindings), 293/hTLR9, Controls (hTLR9; reference): 100%

Poly (I: C)
OD (650 nm), 293/hTLR3 cells, Controls+ (hTLR3; 20 h, screening 1 and 2): 3.287 OD (650 nm) and 3.440 OD (650 nm)
% ligands (% bindings), 293/hTLR3, Controls (hTLR3; reference): 100%

TNFα
OD (650 nm), Cells NF-κB Controls, Controls+ (NF-κB Control cells; 20 h, screening 1 and 2): 2.221 OD (650 nm) and 2.042 OD (650 nm)
% ligands (% bindings), Cell NF-κB Controls, Controls (NF-κB Control cells; reference): 100%

interferon-alpha
response rate (metastatic melanoma): around 20%

B1: S. typhimurium flagellin: TLR5 control ligand (protein, UniProt P06179 2-495, looked up)
Flagellin: AQVINTNSLSLLTQNNLNKSQSALGTAIERLSSGLRINSAKDDAAGQAIANRFTANIKGLTQASRNANDGISIAQTTEGALNEINNNLQRVRELAVQSANSTNSQSDLDSIQAEITQRLNEIDRVSGQTQFNGVKVLAQDNTLTIQVGANDGETIDIDLKQINSQTLGLDTLNVQQKYKVSDTAATVTGYADTTIALDNSTFKASATGLGGTDQKIDGDLKFDDTTGKYYAKVTVTGGTGKDGYYEVSVDKTNGEVTLAGGATSPLTGGLPATATEDVKNVQVANADLTEAKAALTAAGVTGTASVVKMSYTDNNGKTIDGGLAVKVGDDYYSATQNKDGSISINTTKYTADDGTSKTALNKLGGADGKTEVVSIGGKTYAASKAEGHNFKAQPDLAEAAATTTENPLQKIDAALAQVDTLRSDLGAVQNRFNSAITNLGNTVNNLTSARSRIEDSDYATEVSNMSRAQILQQAGTSVLAQANQVPQNVLSLLR
OD (650 nm), 293/hTLR5 cells, Controls+ (hTLR5; 20 h, screening 1 and 2): 3.662 OD (650 nm) and 3.798 OD (650 nm)
% ligands (% bindings), 293/hTLR5, Controls (hTLR5; reference): 100%
